Source: patent US9440982B2 (Eolas Therapeutics, Inc., priority 2012, dated 2016)
Like-named read-outs stand apart in the source and are kept apart here.

Tests used:
[1] = molecular target: T1, OX1 (Homo sapiens, UniProt O43613); assay: Orexin receptor cell-based functional assay, [Ca2+]i by FLIPR, CHO-OX1 cells; settings: CHO-OX1 cells, EC90 of OXA
T1 construct: expressed in transfected cells; host or cells: CHO (CHO-OX1, kept under selection antibiotic)
T1 sequence (O43613 1-425): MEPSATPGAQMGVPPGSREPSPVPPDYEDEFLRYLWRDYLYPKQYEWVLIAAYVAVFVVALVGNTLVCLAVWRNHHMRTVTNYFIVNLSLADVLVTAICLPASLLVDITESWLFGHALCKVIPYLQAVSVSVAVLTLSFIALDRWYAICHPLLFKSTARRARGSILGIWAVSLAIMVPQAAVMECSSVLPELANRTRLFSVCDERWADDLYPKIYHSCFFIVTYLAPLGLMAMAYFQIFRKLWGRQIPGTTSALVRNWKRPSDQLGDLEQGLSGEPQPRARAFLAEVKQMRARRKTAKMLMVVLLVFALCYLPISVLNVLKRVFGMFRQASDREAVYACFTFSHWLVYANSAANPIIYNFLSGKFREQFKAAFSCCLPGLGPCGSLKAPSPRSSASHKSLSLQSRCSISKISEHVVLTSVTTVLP
Outline: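 Antagonist mode FLIPR calcium read in CHO-OX1 and CHO-OX2 lines. Test compounds, dosed 0.1 nM-10 μM, preincubated 30 min after 37° C dye loading with 2.5 mM probenecid (calcium4 for 30 min or calcium6 for 2 h).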

[2] = molecular target: T2, OX2 (Homo sapiens, UniProt O43614); assay: Orexin receptor cell-based functional assay, [Ca2+]i by FLIPR, CHO-OX2 cells
T2 construct: expressed in transfected cells; host or cells: CHO (CHO-OX2, kept under selection antibiotic)
T2 sequence (O43614 1-444): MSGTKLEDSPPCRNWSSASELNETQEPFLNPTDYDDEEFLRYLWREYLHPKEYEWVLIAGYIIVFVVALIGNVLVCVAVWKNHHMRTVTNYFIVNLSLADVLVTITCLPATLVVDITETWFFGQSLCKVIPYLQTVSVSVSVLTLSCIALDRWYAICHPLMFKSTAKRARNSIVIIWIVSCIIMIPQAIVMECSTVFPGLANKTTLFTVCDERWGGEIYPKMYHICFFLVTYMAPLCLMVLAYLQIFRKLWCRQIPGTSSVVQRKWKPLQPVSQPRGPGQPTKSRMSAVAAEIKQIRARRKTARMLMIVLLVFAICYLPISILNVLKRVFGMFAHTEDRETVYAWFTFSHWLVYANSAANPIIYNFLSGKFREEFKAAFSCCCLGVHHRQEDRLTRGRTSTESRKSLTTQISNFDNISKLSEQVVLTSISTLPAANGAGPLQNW
Protocol: Measurement of [Ca^2+]i using a FLIPR: CHO—OX1 or CHO—OX2 cells are seeded into black-walled clear-base 384-well plates (Costar) at a density of 20,000 cells per well in F12-K medium supplemented with 10% FBS and selection antibiotic (500 ug/ml G418 or 15 ug/ml Blasticidin) and cultured overnight. The cells are incubated with equal volume of calcium4 loading buffer (Molecular Devices, Inc.) containing 2.5 mM probenecid at 37° C. for 30 min, followed by putative OX1 or OX2 receptor antagonists (dose-range 0.1 nM-10 μM) for another 30 min.
The cells are incubated with equal volume of calcium6 loading buffer (Molecular Devices, Inc.) containing 2.5 mM probenecid at 37° C. for 2 h, followed by test compounds (dose-range 0.1 nM-10 μM) for another 30 min.

[3] = molecular target: T3, CYP3A4 (Homo sapiens, UniProt P08684); assay: Cytochrome P450 inhibition assay (midazolam hydroxylation); type: in vitro ADME; settings: human, human liver microsomes, probe midazolam (hydroxylation to 1′-hydroxymidazolam), 10 μM test compound, midazolam at approximately its Km
T3 construct: pre-incubated with human liver microsomes and NADPH; from tissue; host or cells: human liver microsomes
Outline: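 Percent inhibition of midazolam 1′-hydroxylation by 10 μM compound was measured, midazolam dosed at about Km. Time-dependent inhibition was probed by a 30 min preincubation of compound with human liver microsomes and NADPH ahead of substrate, compared against samples without preincubation.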

[4] = [Ca2+]i by FLIPR, antagonist dose-range 0.1 nM-10 μM, read-out: OX1
[5] = [Ca2+]i by FLIPR, antagonist dose-range 0.1 nM-10 μM, EC90 of OXA, read-out: OX2

T3 sequence (P08684 whole entry): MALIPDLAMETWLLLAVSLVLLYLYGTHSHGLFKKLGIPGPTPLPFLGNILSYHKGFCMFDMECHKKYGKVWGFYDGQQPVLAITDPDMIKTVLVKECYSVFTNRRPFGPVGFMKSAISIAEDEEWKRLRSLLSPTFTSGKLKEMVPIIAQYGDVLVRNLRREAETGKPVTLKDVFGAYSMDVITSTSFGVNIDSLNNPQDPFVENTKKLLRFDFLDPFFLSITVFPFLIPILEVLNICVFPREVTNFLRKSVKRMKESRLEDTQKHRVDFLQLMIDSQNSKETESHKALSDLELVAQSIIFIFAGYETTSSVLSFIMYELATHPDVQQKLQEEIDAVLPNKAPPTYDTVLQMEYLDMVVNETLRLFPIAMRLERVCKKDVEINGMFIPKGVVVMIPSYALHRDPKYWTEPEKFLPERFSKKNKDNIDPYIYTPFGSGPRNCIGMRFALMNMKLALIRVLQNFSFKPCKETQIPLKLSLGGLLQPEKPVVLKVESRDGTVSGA

| Compound | IC50 [1, 4] [nM] | IC50 [2, 5] [nM] | IC50 ([1]; Table 2, read-out: IC50 Bioactivity OX1) [nM] | IC50 ([2]; Table 2, EC90 of OXA, read-out: IC50 Bioactivity OX2) [nM] | inhibition at 10 µM [3] [%] |
| --- | --- | --- | --- | --- | --- |
| Cc1ccc(-c2cnn(C)c2)c(C(=O)N2CC3CCCC3C2CNc2nc3cc(Cl)ccc3o2)c1 (centres unmarked) [Example A70, (1-(((5-Chlorobenzo[d]oxazol-2-yl)amino)methyl)hexahydrocyclopenta[c]pyrrol-2(1H)-yl)(5-methyl-2-(1-methyl-1H-pyrazol-4-yl)phenyl)methanone] | 2500 | 7800 |  |  |  |
| Cc1c(F)ccc(-c2ncccn2)c1C(=O)N1CCC[C@@H](C)[C@H]1CNc1ccc(C(F)(F)F)cn1 [Example A386, (3-fluoro-2-methyl-6-(pyrimidin-2-yl)phenyl)((2S,3R)-3-methyl-2-(((5-(trifluoromethyl)pyridin-2-yl)amino)methyl)piperidin-1-yl)methanone] | 5 | > 5000 |  |  |  |
| Cc1cccc(-n2nccn2)c1C(=O)N1CCC[C@@H](C)[C@H]1CNc1ncc(C(F)(F)F)cn1 [Example A264, ((2S,3R)-3-Methyl-2-(((5-(trifluoromethyl)pyrimidin-2-yl)amino)methyl)piperidin-1-yl)(2-methyl-6-(2H-1,2,3-triazol-2-yl)phenyl)methanone] | 23 | > 5000 |  |  |  |
| Cc1c(F)ccc(-n2nccn2)c1C(=O)N1CCC[C@@H](C)[C@H]1CNc1ncc(C(F)(F)F)cn1 [Example A385, (3-fluoro-2-methyl-6-(2H-1,2,3-triazol-2-yl)phenyl)((2S,3R)-3-methyl-2-(((5-(trifluoromethyl)pyrimidin-2-yl)amino)methyl)piperidin-1-yl)methanone] | 24 | > 5000 |  |  |  |
| Cc1ccc(-c2ncccn2)c(C(=O)N2CCC[C@@H](C)[C@H]2CNc2ncc(C(F)(F)F)cn2)c1F [Example A321] | 8 | > 5000 |  |  |  |
| Cc1ccc(F)c(C(=O)N2CCC[C@@H](C)[C@H]2CNc2ncc(C(F)(F)F)cn2)c1-n1nccn1 [Example A353, (6-fluoro-3-methyl-2-(2H-1,2,3-triazol-2-yl)phenyl)((2S,3R)-3-methyl-2-(((5-(trifluoromethyl)pyrimidin-2-yl)amino)methyl)piperidin-1-yl)methanone] | 4 | > 5000 |  |  |  |
| C[C@@H]1CCCN(C(=O)c2cc(F)cc(F)c2-n2nccn2)[C@@H]1CNc1ccc(C(F)(F)F)cn1 [Example A328, (3,5-Difluoro-2-(2H-1,2,3-triazol-2-yl)phenyl)((2S,3R)-3-methyl-2-(((5-(trifluoromethyl)pyridin-2-yl)amino)methyl)piperidin-1-yl)methanone] |  | > 5000 |  |  |  |
| Cc1ccc(-n2cccn2)c(C(=O)N2CCC[C@@H](C)[C@H]2CNc2ccc(C(F)(F)F)cn2)c1 (racemic) [Example 120, rac-cis-(3-Methyl-2-(((5-(trifluoromethyl)pyridin-2-yl)amino)methyl)piperidin-1-yl)(5-methyl-2-(1H-pyrazol-1-yl)phenyl)methanone] |  |  | 3 | 500 |  |
| Cc1ccc(-n2cnc(C(F)(F)F)n2)c(C(=O)N2CC3CCCC3C2CNc2nc3cc(Cl)ccc3o2)c1 (centres unmarked) [Example A72, (1-(((5-Chlorobenzo[d]oxazol-2-yl)amino)methyl)hexahydrocyclopenta[c]pyrrol-2(1H)-yl)(5-methyl-2-(3-(trifluoromethyl)-1H-1,2,4-triazol-1-yl)phenyl)methanone] | 2400 | 3900 |  |  |  |
| Cc1ccc(C(=O)N2CCC[C@@H](C)[C@H]2CNc2ncc(C(F)(F)F)cn2)c(-c2ncccn2)c1 [Example A340, ((2S,3R)-3-Methyl-2-(((5-(trifluoromethyl)pyrimidin-2-yl)amino)methyl)piperidin-1-yl)(4-methyl-2-(pyrimidin-2-yl)phenyl)methanone] | 2 | > 5000 |  |  |  |
| C[C@@H]1CCCN(C(=O)c2ccc(F)cc2-c2ncccn2)[C@@H]1CNc1ccc(C(F)(F)F)cn1 [Example A234, (4-Fluoro-2-(pyrimidin-2-yl)phenyl)((2S,3R)-3-methyl-2-(((5-(trifluoromethyl)pyridin-2-yl)amino)methyl)piperidin-1-yl)methanone] | 11 | > 5000 |  |  |  |
| Cc1cc(-n2nccn2)c(C(=O)N2CCC[C@@H](C)[C@H]2CNc2ccc(C(F)(F)F)cn2)cc1F [Example A360, (5-Fluoro-4-methyl-2-(2H-1,2,3-triazol-2-yl)phenyl)((2S,3R)-3-methyl-2-(((5-(trifluoromethyl)pyridin-2-yl)amino)methyl)piperidin-1-yl)methanone] |  | > 5000 |  |  |  |
| Cc1ccc(-n2nccn2)c(C(=O)N2CC3CCCC3C2CNc2nc3cc(Cl)ccc3o2)c1 (centres unmarked) [Example A68, (1-(((5-Chlorobenzo[d]oxazol-2-yl)amino)methyl)hexahydrocyclopenta[c]pyrrol-2(1H)-yl)(5-methyl-2-(2H-1,2,3-triazol-2-yl)phenyl)methanone] | 250 | 3360 |  |  |  |
| Cc1ccc(F)c(C(=O)N2CCC[C@@H](C)[C@H]2CNc2ccc(C(F)(F)F)cn2)c1-n1nccn1 [Example A352, (6-Fluoro-3-methyl-2-(2H-1,2,3-triazol-2-yl)phenyl)((2S,3R)-3-methyl-2-(((5-(trifluoromethyl)pyridin-2-yl)amino)methyl)piperidin-1-yl)methanone] | 4 | 1500 |  |  |  |
| Cc1cc(-n2nccn2)c(C(=O)N2CCC[C@@H](C)[C@H]2CNc2ncc(C(F)(F)F)cn2)cc1F [Example A361, (5-fluoro-4-methyl-2-(2H-1,2,3-triazol-2-yl)phenyl)((2S,3R)-3-methyl-2-(((5-(trifluoromethyl)pyrimidin-2-yl)amino)methyl)piperidin-1-yl)methanone] | 4 | > 5000 |  |  |  |
| Cc1ccc(-c2ncccn2)c(C(=O)N2CCC[C@@H](C)[C@H]2CNc2ccc(Cl)cn2)c1 [Example A138, ((2S,3R)-2-(((5-Chloropyridin-2-yl)amino)methyl)-3-methylpiperidin-1-yl)(5-methyl-2-(pyrimidin-2-yl)phenyl)methanone] | 12 |  |  |  | 75 |
| C[C@@H]1CCCN(C(=O)c2cc(C#N)ccc2-n2nccn2)[C@@H]1CNc1ncc(C(F)(F)F)cn1 [Example A322, 3-((2S,3R)-3-Methyl-2-(((5-(trifluoromethyl)pyrimidin-2-yl)amino)methyl)piperidine-1-carbonyl)-4-(2H-1,2,3-triazol-2-yl)benzonitrile] | 11 |  |  |  | 40 |
| C[C@@H]1CCCN(C(=O)c2cc(F)c(F)cc2-n2nccn2)[C@@H]1CNc1ncc(Cl)cn1 [Example A247, ((2S,3R)-2-(((5-Chloropyrimidin-2-yl)amino)methyl)-3-methylpiperidin-1-yl)(4,5-difluoro-2-(2H-1,2,3-triazol-2-yl)phenyl)methanone] | > 100 |  |  |  | 65 |
| Cc1ccc(-n2nccn2)c(C(=O)N2CCC[C@@H](C)[C@H]2CNc2ncc(Cl)cn2)n1 [Example A177, ((2S,3R)-2-(((5-Chloropyrimidin-2-yl)amino)methyl)-3-methylpiperidin-1-yl)(6-methyl-3-(2H-1,2,3-triazol-2-yl)pyridin-2-yl)methanone] | 5 |  |  |  | 39 |
| C[C@@H]1CCCN(C(=O)c2cccc(F)c2-n2nccn2)[C@@H]1CNc1ccc(Cl)cn1 [Example A254, ((2S,3R)-2-(((5-Chloropyridin-2-yl)amino)methyl)-3-methylpiperidin-1-yl)(3-fluoro-2-(2H-1,2,3-triazol-2-yl)phenyl)methanone] | 37 |  |  |  | 63 |
